Values quoted from earlier work, collected in patent US20240000829A1, “COPOLYMER CONTAINING POLY(ETHYLENE GLYCOL) AND POLY(L-AMINO ACID DERIVATIVE), MICROPARTICLES THEREOF AND USE THEREOF IN PHARMACEUTICAL COMPOSITION” (University of Tsukuba, priority 2020, published 2024).

Tested on: patients with hepatic disorders such as hepatic cirrhosis
Conditions: reported; Non-Patent Document 1

## NCCC[C@H](N)C(=O)O [L-ornithine]
  ammonia level / concentration: reduced ammonia levels
